Assay results taken from PubChem BioAssay (NCI).
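Dose response: 5 concentrations. Exposure: 48 h. Format: 96-well plates. Endpoint: linear interpolation; highest concentration if not reached. At the GI50, growth is halved. TGI denotes the concentration required for complete inhibition of growth.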

How the values were obtained:
Assay in all cases: growth of human tumour cells (NCI), 48 h
MCF7 breast = test system: MCF7 breast
A498 renal = test system: A498 renal
BT-549 breast = test system: BT-549 breast
M14 melanoma = test system: M14 melanoma
MDA-MB-231 breast = test system: MDA-MB-231 breast
PC-3 prostate = test system: PC-3 prostate
CCRF-CEM leukemia = test system: CCRF-CEM leukemia
EKVX NSCLC = test system: EKVX NSCLC
NCI-H460 lung = test system: NCI-H460 lung
HCT-15 colon = test system: HCT-15 colon

| Structure (SMILES) | GI50 (MCF7 breast) [µM] | TGI (MCF7 breast) [µM] | GI50 (A498 renal) [µM] | TGI (A498 renal) [µM] | GI50 (BT-549 breast) [µM] | TGI (BT-549 breast) [µM] | GI50 (M14 melanoma) [µM] | TGI (M14 melanoma) [µM] | GI50 (MDA-MB-231 breast) [µM] | TGI (MDA-MB-231 breast) [µM] | GI50 (PC-3 prostate) [µM] | TGI (PC-3 prostate) [µM] | GI50 (CCRF-CEM leukemia) [µM] | TGI (CCRF-CEM leukemia) [µM] | GI50 (EKVX NSCLC) [µM] | TGI (EKVX NSCLC) [µM] | GI50 (NCI-H460 lung) [µM] | TGI (NCI-H460 lung) [µM] | GI50 (HCT-15 colon) [µM] | TGI (HCT-15 colon) [µM] |
| --- | --- | --- | --- | --- | --- | --- | --- | --- | --- | --- | --- | --- | --- | --- | --- | --- | --- | --- | --- | --- |
| Cc1cnc(C(=O)Nc2nc3ccc(S(=O)(=O)Nc4ccc(C(C)(C)C)cc4)cc3[nH]2)cn1 | 0.338 | 11.3 | 0.288 | 1.31 | 1.12 | 13.6 | 0.384 | 4.43 | 1.41 | 10.7 | 0.402 | 8.31 | 0.415 | 14.5 | 0.789 | 14 | 0.37 | 2.02 | 0.304 | 3.09 |
| CNC(=O)c1sc(-n2cnc3cc(OC)c(OC)cc32)cc1OCc1ccccc1C(F)(F)F | > 25 | > 25 | 1.39 | > 24 | > 25 | > 25 | > 25 | > 25 | 15.9 | > 25 | > 25 | > 25 | > 25 | > 25 | > 25 | > 25 | > 25 | > 25 | > 25 | > 25 |
| N#Cc1ccc2c(-c3ccnc(NC4CC4)n3)c(-c3ccc(F)cc3)nn2c1 | > 25 | > 25 | > 25 | > 25 | > 25 | > 25 | > 25 | > 25 | > 25 | > 25 | > 25 | > 25 | > 25 | > 25 | > 25 | > 25 | > 25 | > 25 | > 25 | > 25 |
| CC1=C(C(=S)Nc2ccc(Cl)c(C(=O)OC(C)C)c2)SCCO1 | – | > 100 | – | 30.7 | – | 37.8 | – | 44 | – | 33.2 | – | 46.4 | – | 44 | – | 54.4 | – | 44.6 | – | 44.9 |
| CCCCCn1sc(=O)n(Cc2ccc(CNC(=O)C(C)c3ccc(CC(C)C)cc3)cc2)c1=O (stereo not drawn) | 0.56 | 2.26 | 1.46 | 2.81 | 0.972 | 2.23 | 0.631 | 1.92 | 1.18 | 2.46 | 0.876 | 2.47 | 0.337 | – | 1.41 | 2.82 | 1.46 | 3.07 | 0.424 | 1.62 |
| O=C(/C=C/c1ccco1)Nc1ncc(Cc2cc(Cl)ccc2Cl)s1 | 0.0359 | > 100 | 0.0245 | 3.96 | 0.189 | – | 0.0373 | > 100 | 0.157 | > 100 | 0.0421 | > 100 | 0.0385 | > 100 | 0.161 | > 100 | 0.0392 | > 100 | 0.0463 | > 100 |
| CSc1ccc(-c2cn3ccsc3n2)cc1 | 1.33 | > 100 | 55.6 | > 100 | > 60.5 | > 100 | 18.1 | > 100 | 31.8 | > 100 | 18.9 | > 100 | 3.97 | > 47.1 | 36.2 | > 100 | 3.71 | > 100 | 9.76 | > 100 |
| COc1ccc(/C(=C(\c2ccccc2)[N+](=O)[O-])c2ccc(OCCN3CCCC3)cc2)cc1 | 0.194 | 3.63 | 2.19 | 10.9 | 4.51 | 17.6 | 1.82 | 3.47 | 2.76 | 6.98 | 4.53 | 16.6 | 5.19 | 22.9 | 7.29 | 21.5 | 2.02 | 4.69 | 1.49 | 4.19 |
| COc1cc([C@H]2OC[C@@H]3C(c4cc(OC)c5c(c4)OCO5)OC[C@H]23)cc(OC)c1OC (stereo partly drawn) | – | > 100 | – | > 100 | – | > 100 | – | > 100 | – | > 100 | – | > 100 | – | > 100 | – | > 100 | – | > 100 | – | > 100 |
